Reference: BigSolDB 2.1

O=c1cc(CO)occ1O
solubility (mole fraction) (in THF, 278.15 K): 0.00384
solubility (mole fraction) (in THF, 283.15 K): 0.00435
solubility (mole fraction) (in THF, 288.15 K): 0.00541
solubility (mole fraction) (in THF, 293.15 K): 0.00663
solubility (mole fraction) (in THF, 298.15 K): 0.00799
solubility (mole fraction) (in THF, 303.15 K): 0.00961
solubility (mole fraction) (in THF, 308.15 K): 0.0116
solubility (mole fraction) (in THF, 313.15 K): 0.0134
solubility (mole fraction) (in THF, 318.15 K): 0.017
solubility (mole fraction) (in THF, 323.15 K): 0.0199
solubility (mole fraction) (in acetonitrile, 278.15 K): 0.00062
solubility (mole fraction) (in acetonitrile, 283.15 K): 0.00078
solubility (mole fraction) (in acetonitrile, 288.15 K): 0.00097
solubility (mole fraction) (in acetonitrile, 293.15 K): 0.00122
solubility (mole fraction) (in acetonitrile, 298.15 K): 0.00151
solubility (mole fraction) (in acetonitrile, 303.15 K): 0.00184
solubility (mole fraction) (in acetonitrile, 308.15 K): 0.00226
solubility (mole fraction) (in acetonitrile, 313.15 K): 0.00276
solubility (mole fraction) (in acetonitrile, 318.15 K): 0.00341
solubility (mole fraction) (in acetonitrile, 323.15 K): 0.00424
solubility (mole fraction) (in isopropanol, 278.15 K): 0.00213
solubility (mole fraction) (in isopropanol, 283.15 K): 0.00266
solubility (mole fraction) (in isopropanol, 288.15 K): 0.0032
solubility (mole fraction) (in isopropanol, 293.15 K): 0.00392
solubility (mole fraction) (in isopropanol, 298.15 K): 0.00478
solubility (mole fraction) (in isopropanol, 303.15 K): 0.00557
solubility (mole fraction) (in isopropanol, 308.15 K): 0.00667
solubility (mole fraction) (in isopropanol, 313.15 K): 0.00814
solubility (mole fraction) (in isopropanol, 318.15 K): 0.00974
solubility (mole fraction) (in isopropanol, 323.15 K): 0.0116
solubility (mole fraction) (in methyl acetate, 278.15 K): 0.00085
solubility (mole fraction) (in methyl acetate, 283.15 K): 0.0011
solubility (mole fraction) (in methyl acetate, 288.15 K): 0.00141
solubility (mole fraction) (in methyl acetate, 293.15 K): 0.00172
solubility (mole fraction) (in methyl acetate, 298.15 K): 0.00213
solubility (mole fraction) (in methyl acetate, 303.15 K): 0.0026
solubility (mole fraction) (in methyl acetate, 308.15 K): 0.00317
solubility (mole fraction) (in methyl acetate, 313.15 K): 0.00385
solubility (mole fraction) (in methyl acetate, 318.15 K): 0.00467
solubility (mole fraction) (in methyl acetate, 323.15 K): 0.00556
solubility (mole fraction) (in n-butanol, 278.15 K): 0.00193
solubility (mole fraction) (in n-butanol, 283.15 K): 0.00242
solubility (mole fraction) (in n-butanol, 288.15 K): 0.00289
solubility (mole fraction) (in n-butanol, 293.15 K): 0.00364
solubility (mole fraction) (in n-butanol, 298.15 K): 0.00452
solubility (mole fraction) (in n-butanol, 303.15 K): 0.00538
solubility (mole fraction) (in n-butanol, 308.15 K): 0.00646
solubility (mole fraction) (in n-butanol, 313.15 K): 0.00779
solubility (mole fraction) (in n-butanol, 318.15 K): 0.00935
solubility (mole fraction) (in n-butanol, 323.15 K): 0.011
solubility (mole fraction) (in n-pentanol, 278.15 K): 0.00185
solubility (mole fraction) (in n-pentanol, 283.15 K): 0.00222
solubility (mole fraction) (in n-pentanol, 288.15 K): 0.0028
solubility (mole fraction) (in n-pentanol, 293.15 K): 0.00392
solubility (mole fraction) (in n-pentanol, 298.15 K): 0.00417
solubility (mole fraction) (in n-pentanol, 303.15 K): 0.00506
solubility (mole fraction) (in n-pentanol, 308.15 K): 0.00611
solubility (mole fraction) (in n-pentanol, 313.15 K): 0.00733
solubility (mole fraction) (in n-pentanol, 318.15 K): 0.00882
solubility (mole fraction) (in n-pentanol, 323.15 K): 0.0106
solubility (mole fraction) (in sec-butanol, 278.15 K): 0.00202
solubility (mole fraction) (in sec-butanol, 283.15 K): 0.00245
solubility (mole fraction) (in sec-butanol, 288.15 K): 0.00315
solubility (mole fraction) (in sec-butanol, 293.15 K): 0.00387
solubility (mole fraction) (in sec-butanol, 298.15 K): 0.00465
solubility (mole fraction) (in sec-butanol, 303.15 K): 0.0057
solubility (mole fraction) (in sec-butanol, 308.15 K): 0.0069
solubility (mole fraction) (in sec-butanol, 313.15 K): 0.00817
solubility (mole fraction) (in sec-butanol, 318.15 K): 0.00981
solubility (mole fraction) (in sec-butanol, 323.15 K): 0.0117
